Values of other authors in the CATMoS acute toxicity set (Mansouri et al. 2021).
Values joined by “and” are separate entries in the source; they are usually repeats but may differ in a detail not shown here. Identical values can stand only once.

assay: rat acute oral toxicity; conditions: in vivo

Row | Compound | LD50
1 | CC1(C)C(=O)[C@@]2(C)CC[C@@H]1C2 | 6160 mg/kg
2 | CC/C=C\CCOCC=O | 4100 mg/kg
3 | COc1c(Cl)cc2[nH]c(C(F)(F)F)nc2c1Cl | 8.03 mg/kg
4 | Fc1ccccc1 | 4400 mg/kg
5 | CC1=C(CC(=O)O)c2cc(F)ccc2/C1=C\c1ccc(S(C)=O)cc1 (centres undefined) | 264 mg/kg
6 | CSC(C)=NOC(=O)N(C)SN(C(C)C)P1(=S)OCCCO1 | 600 mg/kg
7 | N#CCCCCC#N | 155 mg/kg
8 | NC[C@H]1CC[C@H](C(=O)Oc2ccc(CCC(=O)O)cc2)CC1 | 1500 mg/kg
9 | Nc1ccc(O)c(Cc2cc(N)ccc2O)c1 | 25 mg/kg
10 | COc1ccc(OCCCN(C)CCOc2ccc3c(c2)OCO3)c(C2Sc3ccccc3N(C)C2=O)c1 (centres undefined) | 206 mg/kg
11 | CCCCCCCCc1ccc(C(CBr)OCCCC)cc1 (centres undefined) | 250 mg/kg
12 | CN(N=O)C(C)(C)c1ccccc1 | 2100 mg/kg
13 | O=C(Cc1ccc2c(c1)OCc1ccccc1C2=O)OCC(O)CO (centres undefined) | 95 mg/kg
14 | O=S(=O)(O)c1cc(O)ccc1O | 7500 mg/kg
15 | COP(=S)(OC)SCC(=O)O | 2500 mg/kg
16 | CCN(CC)c1nc(N(C=NC2CC(C)(C)NC(C)(C)C2)C2CC(C)(C)NC(C)(C)C2)nc(N(C=NC2CC(C)(C)NC(C)(C)C2)C2CC(C)(C)NC(C)(C)C2)n1 | 826 mg/kg
17 | OC(CBr)C(O)C(O)C(O)CBr (centres undefined) | 1000 mg/kg
18 | Cc1ccc(S(=O)(=O)NC(=O)NC2C3CCC(C)(C2O)C3(C)C)cc1 (centres undefined) | 18000 mg/kg
19 | c1coc(-c2nc3ccccc3[nH]2)c1 | 500 mg/kg
20 | ClCCBr | 64 mg/kg
21 | Oc1cccc2cccnc12 | 1200 mg/kg
22 | CCCCCCc1ccc(C(C[n+]2ccccc2)OCC(CC)CCCC)cc1 (centres undefined) | 250 mg/kg
23 | Cc1ccc2c(c1)C1CN(CCCC(=O)c3ccc(F)cc3)CCC1N2 (centres undefined) | 812 mg/kg
24 | CCCCC(CC)C(=O)O[Si](C)(OC(=O)C(CC)CCCC)OC(=O)C(CC)CCCC (centres undefined) | 2280 mg/kg
25 | CCOP(=S)(OCC)SC(CCl)N1C(=O)c2ccccc2C1=O (centres undefined) | 5 mg/kg

Row | Compound | LD50
26 | CC1=CC(=C2C(=O)c3ccccc3C2=O)C=CN1CCN1CCCCC1 | 390 mg/kg
27 | C[N+](C)(C)CC(O)CC(=O)O (centres undefined) | 6890 mg/kg
28 | CCCCCCOC(C)=O | 42000 mg/kg
29 | CN(C)CCCN1c2ccccc2CCc2cc(O)ccc21 | 2980 mg/kg
30 | CCN(CC)CCN1C(=O)NC(c2ccccc2)(c2ccccc2)C1=O | 1300 mg/kg
31 | CCOP(=S)(OCC)Oc1cc(C)nc2ccccc12 | 50 mg/kg
32 | COP(=S)(OC)OC1CC(C)CCC1C(C)C (centres undefined) | 750 mg/kg
33 | CN1CCC(N(Cc2ccccc2)c2ccccc2)CC1 | 460 mg/kg
34 | CC1(C)OCC(CO)O1 (centres undefined) | 7000 mg/kg
35 | CCCCCCOCC(O)CO (centres undefined) | 2500 mg/kg
36 | CC(C)CCCCCCCCCCOCCCN | 300 mg/kg
37 | O=C(O)c1snc(Cl)c1Cl | 1200 mg/kg
38 | CC(C)(C(=O)c1cccnc1)c1cccnc1 | 521 mg/kg
39 | O=[N+]([O-])c1ccc(O)c2ncccc12 | 510 mg/kg
40 | CNC(=O)Oc1cccc2c1OC(C)(C)CC2 | 3 mg/kg
41 | CC(=O)OCC(C)OC(C)=O (centres undefined) | 13500 mg/kg
42 | CNCC(O)c1ccc(OC(=O)C(C)(C)C)c(OC(=O)C(C)(C)C)c1 (centres undefined) | 183 mg/kg
43 | OCCN(CCO)C1CCCCC1 | 2600 mg/kg
44 | CNC(=O)OCc1cccc(COC(=O)NC)n1 | 1230 mg/kg
45 | CC(C)CC(C)OC(=O)/C=C\C(=O)OC(C)CC(C)C (centres undefined) | 7340 mg/kg
46 | O=C(O)CCC(=O)Nc1ccc(NS(=O)(=O)c2ccc([N+](=O)[O-])cc2)cc1 | 1500 mg/kg
47 | CCOc1cc2c(cc1OCC)C1CC(=O)C(CCC#N)CN1CC2 (centres undefined) | 780 mg/kg
48 | C[C@H]1O[C@H](O[C@H]2[C@H](O)[C@@H](O)[C@@H](O)[C@H](O)[C@@H]2O)[C@@H](N)C[C@@H]1NC(=N)C(=O)O | 22000 mg/kg and 11400 mg/kg
49 | C=CCN1CCCC1=Nc1ccc(Cl)c(Cl)c1 | 1850 mg/kg
50 | CC(C)Cc1ccc(C(C)C(=O)OCCN2CCN(c3cccc(Cl)c3)CC2)cc1 (centres undefined) | 3350 mg/kg

Row | Compound | LD50
51 | CC(C)(Oc1ccc(C2CCCc3ccccc32)cc1)C(=O)O (centres undefined) | 900 mg/kg
52 | COc1ccc2c(c1)c(CC(=O)NO)c(C)n2C(=O)c1ccc(Cl)cc1 | 78 mg/kg
53 | CN(C)CCCN | 1870 mg/kg
54 | CCN(CC)c1ccc(N=O)c(O)c1 | 315 mg/kg
55 | COc1ccc(-c2noc(CC(=O)O)c2-c2ccc(OC)cc2)cc1 | 887 mg/kg
56 | COCCOC(=O)C1=C(C)NC(C)=C(C(=O)OC/C=C/c2ccccc2)C1c1cccc([N+](=O)[O-])c1 (centres undefined) | 4410 mg/kg
57 | NCC(O)CO (centres undefined) | 7500 mg/kg
58 | CCCOC(=O)CC | 10300 mg/kg
59 | CN(C)C(=S)N/N=C/c1ccc([N+](=O)[O-])o1 | 750 mg/kg
60 | OC(CCl)CNCCNCC(O)CCl (centres undefined) | 1000 mg/kg
61 | OCCCO | 15000 mg/kg
62 | C=COC=O | 2820 mg/kg
63 | CN(C)C(=O)SCCCCOc1ccccc1 | 1150 mg/kg
64 | CN(C)C(=O)OC1=CC(=O)CC(C)(C)C1 | 120 mg/kg
65 | NCCCN1CCOCC1 | 3560 mg/kg
66 | C=C(OP(=O)(OCC)OCC)c1ccc(Cl)cc1Cl | 1530 mg/kg
67 | CC(C)(C)C(=O)CCc1ccc(Cl)cc1 | 3140 mg/kg
68 | Clc1ccc2c(c1)C(N1CCNCC1)=Nc1ccccc1O2 | 313 mg/kg
69 | CCCCCCCCOP(=O)(O)OCCC(Cl)Cl | 10300 mg/kg
70 | CCSC(C)C1(CC)C(=O)NC(=S)NC1=O (centres undefined) | 772 mg/kg
71 | N#Cc1ccccc1Cl | 396 mg/kg
72 | CCc1c(C)nc2ccc(Cl)cn2c1=O | 1100 mg/kg
73 | CCC=C(C)CO | 4920 mg/kg
74 | CCC(=O)Nc1cccc(OC(=O)NC)c1 | 1000 mg/kg
